Laboratory results reported in ChEMBL document CHEMBL3885881, “DrugMatrix”.

Organism: Rattus norvegicus
Experiment: DrugMatrix - Regimen: Daily Repeat
Format: toxicity, organism-based, Sprague-Dawley
Parameters: regimen Daily Repeat, gender Male, age 6-8 weeks
Conditions: in vivo, po, route oral GAVAGE, […]; for ABSOLUTE BASOPHIL / ABSOLUTE EOSINOPHIL / ABSOLUTE LYMPHOCYTE / ABSOLUTE MONOCYTE / ABSOLUTE SEGMENTED NEUTROPHIL / BASOPHIL / EOSINOPHIL / ERYTHROCYTE COUNT / HEMATOCRIT / HEMOGLOBIN / LEUKOCYTE COUNT / LYMPHOCYTE / MEAN CORPUSCULAR HEMOGLOBIN / MEAN CORPUSCULAR HEMOGLOBIN CONCENTRATION / MEAN CORPUSCULAR VOLUME / MONOCYTE / NEUTROPHIL / NUCLEATED RED BLOOD CELLS / PLATELET COUNT: tissue Blood; for ALANINE AMINOTRANSFERASE / ALBUMIN / ALKALINE PHOSPHATASE / ASPARTATE AMINOTRANSFERASE / BLOOD UREA NITROGEN / CARBON DIOXIDE / CHLORIDE / CHOLESTEROL / CREATINE PHOSPHOKINASE / CREATININE / GLUCOSE / LACTATE DEHYDROGENASE / LIPASE / PHOSPHORUS / POTASSIUM / SODIUM / TOTAL BILIRUBIN / TOTAL PROTEIN / URIC ACID: tissue Plasma
[1] = 0 mg/kg, 72 h, dose level Control, time 3 day
[2] = 0 mg/kg, 120 h, dose level Control, time 5 day
[3] = 100 mg/kg, 72 h, dose level Low, time 3 day

With CC(=O)Nc1ccc(O)cc1 [ACETAMINOPHEN] the “ABSOLUTE BASOPHIL” value [1] was 0 CELLS/uL, the “ABSOLUTE EOSINOPHIL” value [1] was 0 CELLS/uL and the “ABSOLUTE LYMPHOCYTE” value [1] was 6275.67 CELLS/uL. The “ABSOLUTE MONOCYTE” value [1] was 40.67 CELLS/uL, the “ABSOLUTE SEGMENTED NEUTROPHIL” value [1] was 633.67 CELLS/uL and the BASOPHIL [1] was 0%. The EOSINOPHIL [1] was 0%, the “ERYTHROCYTE COUNT” value [1] was 5.2 x10E6/uL and the HEMATOCRIT [1] was 32.78%. For the same compound, the HEMOGLOBIN [1] was 12.98 G/DL, the “LEUKOCYTE COUNT” value [1] was 6.95 x10E3/uL and the LYMPHOCYTE [1] was 90.17%. The “MEAN CORPUSCULAR HEMOGLOBIN” value [1] was 24.97 pg, the “MEAN CORPUSCULAR HEMOGLOBIN CONCENTRATION” value [1] was 39.62 G/DL and the “MEAN CORPUSCULAR VOLUME” value [1] was 63.03 fL. The MONOCYTE [1] was 0.67%, the NEUTROPHIL [1] was 9.17% and the “NUCLEATED RED BLOOD CELLS” value [1] was 0 /100WBC. The “PLATELET COUNT” value [1] was 1082.83 x10E3/uL, the “ALANINE AMINOTRANSFERASE” value [1] was 69.67 u/L and the ALBUMIN [1] was 4.15 G/DL. The “ALKALINE PHOSPHATASE” value [1] was 430.5 u/L, the “ASPARTATE AMINOTRANSFERASE” value [1] was 90.83 u/L and the “BLOOD UREA NITROGEN” value [1] was 13 mg/dL. The “CARBON DIOXIDE” value [1] was 33 mmol/L, the CHLORIDE [1] was 99.17 MEQ/L and the CHOLESTEROL [1] was 70.5 mg/dL. For the same compound, the “CREATINE PHOSPHOKINASE” value [1] was 253.33 u/L, the CREATININE [1] was 0.13 mg/dL and the GLUCOSE [1] was 157.17 mg/dL. For the same compound, the “LACTATE DEHYDROGENASE” value [1] was 85 u/L, the LIPASE [1] was 10 u/L and the PHOSPHORUS [1] was 10.2 mg/dL. The POTASSIUM [1] was 5.78 MEQ/L, the SODIUM [1] was 144.12 MEQ/L and the “TOTAL BILIRUBIN” value [1] was 0.2 mg/dL. For the same compound, the “TOTAL PROTEIN” value [1] was 5.8 G/DL, the “URIC ACID” value [1] was 0.8 mg/dL and the “ABSOLUTE BASOPHIL” value [2] was 0 CELLS/uL. For the same compound, the “ABSOLUTE EOSINOPHIL” value [2] was 0 CELLS/uL, the “ABSOLUTE LYMPHOCYTE” value [2] was 10431 CELLS/uL and the “ABSOLUTE MONOCYTE” value [2] was 90.5 CELLS/uL. For the same compound, the “ABSOLUTE SEGMENTED NEUTROPHIL” value [2] was 1111.83 CELLS/uL, the BASOPHIL [2] was 0% and the EOSINOPHIL [2] was 0%. The “ERYTHROCYTE COUNT” value [2] was 5.51 x10E6/uL, the HEMATOCRIT [2] was 34.67% and the HEMOGLOBIN [2] was 13.5 G/DL. For the same compound, the “LEUKOCYTE COUNT” value [2] was 11.63 x10E3/uL, the LYMPHOCYTE [2] was 89.67% and the “MEAN CORPUSCULAR HEMOGLOBIN” value [2] was 24.5 pg. For the same compound, the “MEAN CORPUSCULAR HEMOGLOBIN CONCENTRATION” value [2] was 38.95 G/DL, the “MEAN CORPUSCULAR VOLUME” value [2] was 62.87 fL and the MONOCYTE [2] was 0.67%. The NEUTROPHIL [2] was 9.67%, the “NUCLEATED RED BLOOD CELLS” value [2] was 0 /100WBC and the “PLATELET COUNT” value [2] was 1052.67 x10E3/uL. For the same compound, the “ALANINE AMINOTRANSFERASE” value [2] was 54.67 u/L, the ALBUMIN [2] was 4.15 G/DL and the “ALKALINE PHOSPHATASE” value [2] was 359.83 u/L. For the same compound, the “ASPARTATE AMINOTRANSFERASE” value [2] was 83 u/L, the “BLOOD UREA NITROGEN” value [2] was 13.5 mg/dL and the “CARBON DIOXIDE” value [2] was 27.17 mmol/L. The CHLORIDE [2] was 98.5 MEQ/L, the CHOLESTEROL [2] was 66.83 mg/dL and the “CREATINE PHOSPHOKINASE” value [2] was 256.17 u/L. For the same compound, the CREATININE [2] was 0.19 mg/dL, the GLUCOSE [2] was 171.33 mg/dL and the “LACTATE DEHYDROGENASE” value [2] was 91.5 u/L. For the same compound, the LIPASE [2] was 10.5 u/L, the PHOSPHORUS [2] was 8.72 mg/dL and the POTASSIUM [2] was 5.34 MEQ/L. For the same compound, the SODIUM [2] was 142.53 MEQ/L, the “TOTAL BILIRUBIN” value [2] was 0.2 mg/dL and the “TOTAL PROTEIN” value [2] was 6.05 G/DL. For the same compound, the “URIC ACID” value [2] was 0.6 mg/dL, the “ABSOLUTE BASOPHIL” value [3] was 0 CELLS/uL and the “ABSOLUTE EOSINOPHIL” value [3] was 0 CELLS/uL. For the same compound, the “ABSOLUTE LYMPHOCYTE” value [3] was 7022 CELLS/uL, the “ABSOLUTE MONOCYTE” value [3] was 162.33 CELLS/uL and the “ABSOLUTE SEGMENTED NEUTROPHIL” value [3] was 715.67 CELLS/uL. The BASOPHIL [3] was 0%, the EOSINOPHIL [3] was 0% and the “ERYTHROCYTE COUNT” value [3] was 5.13 x10E6/uL. The HEMATOCRIT [3] was 32.6%, the HEMOGLOBIN [3] was 12.9 G/DL and the “LEUKOCYTE COUNT” value [3] was 7.9 x10E3/uL. For the same compound, the LYMPHOCYTE [3] was 88.67%, the “MEAN CORPUSCULAR HEMOGLOBIN” value [3] was 25.13 pg and the “MEAN CORPUSCULAR HEMOGLOBIN CONCENTRATION” value [3] was 39.57 G/DL. For the same compound, the “MEAN CORPUSCULAR VOLUME” value [3] was 63.53 fL, the MONOCYTE [3] was 2% and the NEUTROPHIL [3] was 9.33%. For the same compound, the “NUCLEATED RED BLOOD CELLS” value [3] was 0 /100WBC, the “PLATELET COUNT” value [3] was 1191.67 x10E3/uL and the “ALANINE AMINOTRANSFERASE” value [3] was 62 u/L. The ALBUMIN [3] was 4.1 G/DL, the “ALKALINE PHOSPHATASE” value [3] was 340 u/L and the “ASPARTATE AMINOTRANSFERASE” value [3] was 77.67 u/L. For the same compound, the “BLOOD UREA NITROGEN” value [3] was 15.33 mg/dL, the “CARBON DIOXIDE” value [3] was 33.67 mmol/L and the CHLORIDE [3] was 98.67 MEQ/L. The CHOLESTEROL [3] was 85 mg/dL, the “CREATINE PHOSPHOKINASE” value [3] was 201.67 u/L and the CREATININE [3] was 0.15 mg/dL. For the same compound, the GLUCOSE [3] was 165 mg/dL, the “LACTATE DEHYDROGENASE” value [3] was 82.67 u/L and the LIPASE [3] was 10 u/L. It also gave a PHOSPHORUS [3] of 11 mg/dL, a POTASSIUM [3] of 5.65 MEQ/L and an SODIUM [3] of 145.13 MEQ/L. The “TOTAL BILIRUBIN” value [3] was 0.2 mg/dL, the “TOTAL PROTEIN” value [3] was 5.9 G/DL and the “URIC ACID” value [3] was 0.73 mg/dL.
